The record followed here is PMC8827060, “Identification and characterization of L- and D-lactate-inducible systems from Escherichia coli MG1655, Cupriavidus necator H16 and Pseudomonas species” (Scientific Reports, 2022).

The assay deals with T1, CnGntR.
T1 construct: gene gntR; full-length TR gene with PH16_RS19190-mRFP1 reporter on plasmid pEA007; host C. necator H16; regulator of cluster H16_RS19175-H16_RS19195, its own locus tag inferred
The assay is described as follows: mRFP1 reporter dose-response in cells, Hill fit. The class given is cell-based, Cupriavidus necator. The note with it: inducer of transcriptional regulator; half-maximal reporter output; host C. necator H16; minimal medium with 0.4% gluconate, 30 °C, 6 h; Hill coefficient 1.19; read-out: Km. The source says: mRFP1 reporter dose-response in cells, Hill fit on CnGntR

Each structure is given as a SMILES string.

In the case of `C[C@H](O)C(=O)O` [L-lactate], the EC50 amounted to 670 ± 210 µM.
